The values that follow come from US10787444B2, “Compounds for the modulation of myc activity” (Syros Pharmaceuticals, Inc., priority 2015, dated 2020).

Assay [1] concerns human small lung cancer cell line H2171. Briefly: Cell Viability Assay (ATPlite). In kind it is cell-based. The following applies: Table 2, compounds of FIG. 1, H2171 cells, three days, ATPlite, calculated IC50 class, read-out: H2171 Activity. As for the experimental part: Compounds of the invention were assayed for cell viability using the human small lung cancer cell line H2171 as described in the following protocol. Cells were counted and adjusted to 20,000 cells/mL. Using a Biotek EL406, 50 μL of cells in media were distributed into 384 well white plates from Thermo. Immediately after plating, compound in DMSO was distributed to plates. Compounds were added to plates using a 50 nL 384 well pin transfer manifold on a Janus workstation. Stocks were arrayed in 10 point dose response in DMSO stock in 384 well Greiner compound plates. After the addition of compounds, plates were incubated for three days in a 37° C. incubator. Cell viability was read out using ATPlite from Perkin Elmer. Lyophilized powder was resuspended in lysis buffer and diluted 1:2 with deionized water. 25 μL of this solution was added to each well using the Biotek liquid handler. Plates were incubated for 15 minutes at room temperature before signal was read on an Envision Plate Reader. The data from this assay are summarized in Tables 2 and 3 below (H2171 activity).

In a further assay the target is T1, c-Myc/Max/Ebox DNA (Homo sapiens, UniProt P01106).
T1 construct: his6 (cleaved yes)
Briefly: c-Myc/Max/Ebox DNA AlphaScreen Assay. Type of assay: binding. The following applies: Table 2, compounds of FIG. 1; calculated IC50 class. As for the experimental part:
Compounds of the invention were assayed for c-Myc/Max/EBox activity as described in the following protocol. Human his6-c-Myc and his6-Max were used with biotinylated DNA containing a single Ebox sequence (biotin[…]) purchased from MWG Operon. Free c-Myc was generated from his6-c-Myc through thrombin cleavage of the his6 tag. For 384-well plate assays, 10 μL of a 2× solution of free c-Myc (20 nM final), Ni^2+ coated Acceptor Beads (25 μg/ml final), and biotinylated Ebox oligo (10 nM final) were added to 384-well plates with a Biotek EL406 liquid handler. 50 nL of compounds from stock plates were added by pin transfer using a Janus Workstation (PerkinElmer), allowing the compounds to interact with c-Myc prior to c-Myc binding with Max. In the current assay, DMSO was not allowed to exceed 2% v/v of the assay. 10 μl of 2× master mix containing streptavidin-coated donor beads (25 μg/ml final) and his6-Max (5 nM) were added. AlphaScreen measurements were performed on an Envision plate reader (PerkinElmer) utilizing the manufacturer's protocol.
Both master mixes were made in room temperature assay buffer (50 mM HEPES, 150 mM NaCl, 0.2% w/v BSA, 0.02% w/v Tween20, 40 μg/ml glycogen, 500 μM DTT, pH 8.0, wherein both DTT and glycogen were added fresh). Alpha beads were added to respective master solutions. All subsequent steps were performed in low light conditions. Solution 1:2× solution of components with final concentrations of c-Myc Ni-coated Acceptor Beads (25 μg/ml), and biotinylated Ebox oligo (10 nM). Solution 2:2× solution of streptavidin-coated donor beads (25 μg/ml final) and his6-Max 10 μL. […] 50 nL of compounds from stock plates were added by pin transfer using a Janus Workstation. Solution 2 (10 μl) was added with the liquid handler. Plates were sealed with foil to block light exposure and prevent evaporation. Plates were very briefly centrifuged followed by 2 hour incubation. […] Excitation was at 680 nm for donor bead release of singlet oxygen and emission was read with a bandpass filter from 520-620 nm.

The structures appear in SMILES notation. Where two headings read alike, the source gives them in different places. Some results are limits rather than exact numbers.

T1 sequence (P01106 whole entry): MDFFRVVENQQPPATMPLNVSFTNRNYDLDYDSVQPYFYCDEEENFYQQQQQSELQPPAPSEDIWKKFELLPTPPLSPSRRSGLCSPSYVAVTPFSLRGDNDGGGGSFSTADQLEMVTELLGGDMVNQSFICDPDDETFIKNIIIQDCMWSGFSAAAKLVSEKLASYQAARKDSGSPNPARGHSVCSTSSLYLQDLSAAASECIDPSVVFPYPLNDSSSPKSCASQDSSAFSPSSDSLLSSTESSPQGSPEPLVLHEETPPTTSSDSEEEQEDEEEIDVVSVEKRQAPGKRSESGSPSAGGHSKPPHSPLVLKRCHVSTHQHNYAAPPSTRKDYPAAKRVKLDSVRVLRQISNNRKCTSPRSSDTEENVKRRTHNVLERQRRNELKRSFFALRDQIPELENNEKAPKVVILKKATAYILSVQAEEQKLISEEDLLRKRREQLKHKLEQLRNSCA

Regarding `COCCNCCC(=O)Nc1sc2c(c1-c1nc3cc(-c4cccnc4)ccc3s1)CC(C)NC2C` (single isomer, unassigned) [Compound 524, N-(5,7-Dimethyl-3-(5-(pyridin-3-yl)benzo[d]thiazol-2-yl)-4,5,6,7-tetrahydrothieno[2,3-c]pyridin-2-yl)-3-((2-methoxyethyl)amino)propanamide], the IC50 in assay [1] (Homo sapiens, NCI-H2171, 72 h) is 300 to 1000 nM; at c-Myc/Max/Ebox DNA it was < 300 nM.

For `COCCNCCC(=O)Nc1sc2c(c1-c1nc3cc(-c4cccnc4)ccc3s1)CC(C)NC2C` (single isomer, unassigned) [Compound 525, N-(5,7-Dimethyl-3-(5-(pyridin-3-yl)benzo[d]thiazol-2-yl)-4,5,6,7-tetrahydrothieno[2,3-c]pyridin-2-yl)-3-((2-methoxyethyl)amino)propanamide], the IC50 (in assay [1]; at c-Myc/Max/Ebox DNA) was < 300 nM throughout.

`COCCNCCC(=O)Nc1sc2c(c1-c1nc3cc(-c4cccnc4)ccc3s1)CC(C)NC2C` (single isomer, unassigned) [Compound 526, N-(5,7-Dimethyl-3-(5-(pyridin-3-yl)benzo[d]thiazol-2-yl)-4,5,6,7-tetrahydrothieno[2,3-c]pyridin-2-yl)-3-((2-methoxyethyl)amino)propanamide]: the IC50 in assay [1] is 300 to 1000 nM; at c-Myc/Max/Ebox DNA, 1000 to 10000 nM.

On to `COCCNCCC(=O)Nc1sc2c(c1-c1nc3ccc(-c4cccnc4)cc3s1)CC(C)NC2C` (single isomer, unassigned) [Compound 527, N-(5,7-Dimethyl-3-(6-(pyridin-3-yl)benzo[d]thiazol-2-yl)-4,5,6,7-tetrahydrothieno[2,3-c]pyridin-2-yl)-3-((2-methoxyethyl)amino)propanamide], for which the IC50 is < 300 nM in assay [1] and 300 to 1000 nM on c-Myc/Max/Ebox DNA.

As to `COCCNCCC(=O)Nc1sc2c(c1-c1nc3ccc(-c4cccnc4)cc3s1)CC(C)NC2C` (single isomer, unassigned) [Compound 528, N-(5,7-Dimethyl-3-(6-(pyridin-3-yl)benzo[d]thiazol-2-yl)-4,5,6,7-tetrahydrothieno[2,3-c]pyridin-2-yl)-3-((2-methoxyethyl)amino)propanamide], the IC50 (in assay [1]; at c-Myc/Max/Ebox DNA) was 300 to 1000 nM throughout.

Regarding `CCC1Cc2c(sc(NC(=O)CCNCCOC)c2-c2nc3ccccc3s2)C(CC)N1` (single isomer, unassigned) [Compound 536, N-(3-(Benzo[d]thiazol-2-yl)-5,7-diethyl-4,5,6,7-tetrahydrothieno[2,3-c]pyridin-2-yl)-3-((2-methoxyethyl)amino)propanamide], the IC50 was < 300 nM in assay [1] (Homo sapiens, NCI-H2171, 72 h) and 300 to 1000 nM on c-Myc/Max/Ebox DNA.

Regarding `CCC1Cc2c(sc(NC(=O)CCNCCOC)c2-c2nc3ccccc3s2)C(CC)N1` (single isomer, unassigned) [Compound 537, N-(3-(Benzo[d]thiazol-2-yl)-5,7-diethyl-4,5,6,7-tetrahydrothieno[2,3-c]pyridin-2-yl)-3-((2-methoxyethyl)amino)propanamide], the IC50 was < 300 nM in assay [1] and > 10000 nM on c-Myc/Max/Ebox DNA.

With `COCCNCCC(=O)Nc1sc2c(c1-c1nc3cc(F)ccc3s1)CC(C)NC2C` (single isomer, unassigned) [Compound 544, N-(3-(5-Fluorobenzo[d]thiazol-2-yl)-5,7-dimethyl-4,5,6,7-tetrahydrothieno[2,3-c]pyridin-2-yl)-3-((2-methoxyethyl)amino)propanamide], the IC50 in assay [1] (Homo sapiens, NCI-H2171, 72 h) is < 300 nM; at c-Myc/Max/Ebox DNA, < 300 nM.

Turning to `COCCNCCC(=O)Nc1sc2c(c1-c1nc3cc(F)ccc3s1)CC(C)NC2C` (single isomer, unassigned) [Compound 545, N-(3-(5-Fluorobenzo[d]thiazol-2-yl)-5,7-dimethyl-4,5,6,7-tetrahydrothieno[2,3-c]pyridin-2-yl)-3-((2-methoxyethyl)amino)propanamide], the IC50 (in assay [1]; on c-Myc/Max/Ebox DNA) was < 300 nM throughout.

Regarding `COCCNCCC(=O)Nc1sc2c(c1-c1nc3cc(F)ccc3s1)CC(C)NC2C` (single isomer, unassigned) [Compound 546, N-(3-(5-Fluorobenzo[d]thiazol-2-yl)-5,7-dimethyl-4,5,6,7-tetrahydrothieno[2,3-c]pyridin-2-yl)-3-((2-methoxyethyl)amino)propanamide], the IC50 is < 300 nM in assay [1] and > 10000 nM at c-Myc/Max/Ebox DNA.

As to `COCCNCCC(=O)Nc1sc2c(c1-c1nc3cc(F)ccc3s1)CC(C)NC2C` (single isomer, unassigned) [Compound 547, N-(3-(5-Fluorobenzo[d]thiazol-2-yl)-5,7-dimethyl-4,5,6,7-tetrahydrothieno[2,3-c]pyridin-2-yl)-3-((2-methoxyethyl)amino)propanamide], the values for the IC50 (in assay [1]; at c-Myc/Max/Ebox DNA) were < 300 nM and 1000 to 10000 nM, respectively.

For `COCCNCCC(=O)Nc1sc2c(c1-c1nc3cc(-c4ccncc4)ccc3s1)CCNC2C` (single isomer, unassigned) [Compound 548, 3-((2-Methoxyethyl)amino)-N-(7-methyl-3-(5-(pyridin-4-yl)benzo[d]thiazol-2-yl)-4,5,6,7-tetrahydrothieno[2,3-c]pyridin-2-yl)propanamide], the IC50 (in assay [1]; on c-Myc/Max/Ebox DNA) was < 300 nM in each case.

For the molecule `COCCNCCC(=O)Nc1sc2c(c1-c1nc3cc(-c4ccncc4)ccc3s1)CC(C)NC2` (single isomer, unassigned) [Compound 549, 3-((2-Methoxyethyl)amino)-N-(5-methyl-3-(5-(pyridin-4-yl)benzo[d]thiazol-2-yl)-4,5,6,7-tetrahydrothieno[2,3-c]pyridin-2-yl)propanamide], the IC50 was < 300 nM in assay [1] (Homo sapiens, NCI-H2171, 72 h) and < 300 nM at c-Myc/Max/Ebox DNA.

For the molecule `COCCNCCC(=O)Nc1sc2c(c1-c1nc3cc(C(F)(F)F)ccc3s1)CC(C)NC2` (single isomer, unassigned) [Compound 550, 3-((2-Methoxyethyl)amino)-N-(5-methyl-3-(5-(trifluoromethyl)benzo[d]thiazol-2-yl)-4,5,6,7-tetrahydrothieno[2,3-c]pyridin-2-yl)propanamide], the IC50 is < 300 nM in assay [1] (Homo sapiens, NCI-H2171, 72 h) and < 300 nM at c-Myc/Max/Ebox DNA.

On to `COCCNCCC(=O)Nc1sc2c(c1-c1nc3cc(C(F)(F)F)ccc3s1)CC(C)NC2` (single isomer, unassigned) [Compound 551, 3-((2-Methoxyethyl)amino)-N-(5-methyl-3-(5-(trifluoromethyl)benzo[d]thiazol-2-yl)-4,5,6,7-tetrahydrothieno[2,3-c]pyridin-2-yl)propanamide], for which the IC50 (in assay [1]; at c-Myc/Max/Ebox DNA) was < 300 nM in each case.

`COCCNCCC(=O)Nc1sc2c(c1-c1nc3cc(-c4cnn(C)c4)ccc3s1)CC(C)NC2C` (single isomer, unassigned) [Compound 564, N-(5,7-Dimethyl-3-(5-(1-methyl-1H-pyrazol-4-yl)benzo[d]thiazol-2-yl)-4,5,6,7-tetrahydrothieno[2,3-c]pyridin-2-yl)-3-((2-methoxyethyl)amino)propanamide]: the IC50 in assay [1] (Homo sapiens, NCI-H2171, 72 h) was < 300 nM; on c-Myc/Max/Ebox DNA it was < 300 nM.

With `COCCNCCC(=O)Nc1sc2c(c1-c1nc3cc(-c4cnn(C)c4)ccc3s1)CC(C)NC2C` (single isomer, unassigned) [Compound 565, N-(5,7-Dimethyl-3-(5-(1-methyl-1H-pyrazol-4-yl)benzo[d]thiazol-2-yl)-4,5,6,7-tetrahydrothieno[2,3-c]pyridin-2-yl)-3-((2-methoxyethyl)amino)propanamide], the IC50 (in assay [1]; at c-Myc/Max/Ebox DNA) was < 300 nM throughout.

`COCCNCCC(=O)Nc1sc2c(c1-c1nc3cc(-c4cnn(C)c4)ccc3s1)CC(C)NC2C` (single isomer, unassigned) [Compound 566, N-(5,7-Dimethyl-3-(5-(1-methyl-1H-pyrazol-4-yl)benzo[d]thiazol-2-yl)-4,5,6,7-tetrahydrothieno[2,3-c]pyridin-2-yl)-3-((2-methoxyethyl)amino)propanamide]: the IC50 was < 300 nM in assay [1] and 1000 to 10000 nM at c-Myc/Max/Ebox DNA.
